These results are taken from patent publication US20230416297A1, “ANDROGEN RECEPTOR MODULATORS” (TRUSTEES OF DARTMOUTH COLLEGE, priority 2020, published 2023).

Values joined by “and” are separate entries in the source; they are usually repeats but may differ in a detail not shown here. Equal values may be shown once.

The target in experiment [1] is T1, androgen receptor (Homo sapiens, UniProt P10275).
T1 sequence (P10275 1-920): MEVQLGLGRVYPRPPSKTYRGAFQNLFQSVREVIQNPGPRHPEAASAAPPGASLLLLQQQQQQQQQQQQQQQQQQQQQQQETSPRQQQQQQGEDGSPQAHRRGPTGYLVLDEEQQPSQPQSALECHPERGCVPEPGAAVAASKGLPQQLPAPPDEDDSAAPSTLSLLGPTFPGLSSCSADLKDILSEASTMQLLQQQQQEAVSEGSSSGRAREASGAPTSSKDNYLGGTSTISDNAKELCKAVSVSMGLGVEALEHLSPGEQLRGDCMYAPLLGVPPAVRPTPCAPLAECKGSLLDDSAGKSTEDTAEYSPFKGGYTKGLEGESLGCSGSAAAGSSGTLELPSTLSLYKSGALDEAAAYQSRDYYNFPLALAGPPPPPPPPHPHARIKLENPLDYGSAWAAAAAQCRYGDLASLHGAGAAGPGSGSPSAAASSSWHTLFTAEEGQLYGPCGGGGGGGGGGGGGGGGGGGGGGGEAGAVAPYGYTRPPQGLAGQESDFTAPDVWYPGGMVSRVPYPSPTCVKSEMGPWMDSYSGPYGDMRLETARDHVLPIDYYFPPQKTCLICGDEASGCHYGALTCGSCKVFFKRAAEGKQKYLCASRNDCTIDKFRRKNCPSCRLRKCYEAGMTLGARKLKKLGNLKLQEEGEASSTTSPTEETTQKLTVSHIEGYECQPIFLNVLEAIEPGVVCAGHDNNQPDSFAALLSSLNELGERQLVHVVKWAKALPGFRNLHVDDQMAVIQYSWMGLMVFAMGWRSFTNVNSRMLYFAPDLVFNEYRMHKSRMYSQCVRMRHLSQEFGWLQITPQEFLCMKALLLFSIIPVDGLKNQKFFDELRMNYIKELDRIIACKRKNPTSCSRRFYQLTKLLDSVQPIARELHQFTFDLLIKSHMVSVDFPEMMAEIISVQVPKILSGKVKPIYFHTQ
The experiment can be described thus: human AR antagonist assay (Indigo Biosciences). Format: cell-based. Set-up: purchased Indigo Biosciences. The text has this: (§1) The activity of a compound can be determined using various known methods. For example, AR assays can be used. Such AR assays include binding assays using, for example, cells transfected with the human androgen receptor. Several cell based model systems that allow sensitive detection and monitoring of steroids or other compounds with AR bioactivity are known. Most cell based AR reporter models use transgenic gene constructs that include an androgen response element (ARE) that controls reporter gene (e.g., lucifersrase) expression. For example, a human AR Reporter Assay System is commercially available from Indigo Biosciecnes. The principle application of such an assay product is to quantify functional activities, either agonist or antagonist, that a compound may exert against the human androgen receptor. […] In addition, the anti-proliferative activity of a compound can be determined using various known methods, including in vitro and in vivo antiproliferative assays using cancer cell lines such as a prostate cancer cell line.
(§2) The activity of certain compounds were tested in a human AR agonist assay and a human AR antagonist assay (Indigo Biosciences).

Experiment [2] addresses T1, androgen receptor. The experiment can be described thus: AR binding (Ki, Table A).
Text: as §1

In experiment [3] the target is T1, androgen receptor. The experiment can be described thus: human AR agonist assay (Indigo Biosciences). Type of experiment: cell-based. More on the design: purchased Indigo Biosciences. As to conditions: for HillSlope: agonist mode, Table 1 / FIG. 1.
Text: as §1, §2

Where [4] appears, read: antagonist mode, Table 3 / FIG. 3.
Where [5] appears, read: antagonist mode, Table 2 / FIG. 2.

Regarding `CC(C)CCC[C@]12CC[C@@]3(C)C(=C1C[C@@H](O)C2)CCC1=CC(=O)CC[C@@H]13` [Compound 110], the HillSlope at androgen receptor [1] (setting [4]) came out at 0.6338.
In turn, `C[C@]12CC[C@@]3(C)C(=C1C[C@H](O)C2)CCC1=CC(=O)CC[C@@H]13` [Compound 103, (9R,10S,13R,16R)-16-hydroxy-9,13-dimethyl-1,2,6,7,9,10,11,12,13,15,16,17-dodecahydro-3H-cyclopenta[a]phenanthren-3-one] gave a Ki on androgen receptor [2] of 3.46 µM. Moreover, the HillSlope entry is reported as “≈1.247” on androgen receptor [3] and 1.906 at androgen receptor [1] (setting [5]). The IC50 at androgen receptor [1] (Table A) and against androgen receptor [1] (setting [5]) was 1.24 µM in each case.
At androgen receptor [2], `CC(=O)O[C@@H]1CC2=C3CCC4=CC(=O)CC[C@@H]4[C@@]3(C)CC[C@]2(C)C1` [Compound 101, (9R,10S,13R,16S)-9,13-dimethyl-3-oxo-2,3,6,7,9,10,11,12,13,15,16,17-dodecahydro-1H-cyclopenta[a]phenanthren-16-yl acetate] came in with a Ki of 7.35 µM. On androgen receptor [3], this molecule displayed a concentration giving a half-maximal response (EC50) of 10 µM. The HillSlope on androgen receptor [3] turned out to be 1.063; on androgen receptor [1] (setting [5]), 2.100. Besides, the IC50 against androgen receptor [1] (Table A) and against androgen receptor [1] (setting [5]) was 0.413 µM each time.
As to `C[C@@]12CC[C@]3(C)C(=C1C[C@H](O)C2)CCC1=CC(=O)CC[C@H]13` [Compound 104], on androgen receptor [1] (Table A), the midpoint of inhibition, the IC50, lay at 4.3 µM.
Regarding `C[C@@]12CC[C@]3(C)C(=C1C[C@@H](O)C2)CCC1=CC(=O)CC[C@H]13` [Compound 105], the IC50 against androgen receptor [1] (Table A) was 1.5 µM.
Consider `CC(C)CCC[C@]12CC[C@@]3(C)C(=C1C[C@@H](O)C2)CCC1=CC(=O)CC[C@@H]13` [Compound 108], for which the HillSlope on androgen receptor [1] (setting [4]) stood at 1.225.
As to `C[C@]12CC[C@@]3(C)C(=C1C[C@@H](O)C2)CCC1=C[C@@H](O)CC[C@@H]13` [Compound 107], half-maximal inhibition at androgen receptor [1] (Table A) (IC50) was put at 4.8 µM.
In turn, `C[C@]12CC[C@@]3(C)C(=C1C[C@@H](O)C2)CCC1=CC(=O)CC[C@@H]13` [Compound 102, (9R,10S,13R,16S)-16-hydroxy-9,13-dimethyl-1,2,6,7,9,10,11,12,13,15,16,17-dodecahydro-3H-cyclopenta[a]phenanthren-3-one] had a Ki on androgen receptor [2] of 0.919 µM. This molecule also yielded a 50% effective concentration (EC50) on androgen receptor [3] of 23 µM. Moreover, the HillSlope was determined as 1.300 on androgen receptor [3] and 1.728 at androgen receptor [1] (setting [5]). The IC50 on androgen receptor [1] (Table A) and against androgen receptor [1] (setting [5]) was 0.654 µM each time.
As to `CC(C)(O)C(=O)Nc1ccc([N+](=O)[O-])c(C(F)(F)F)c1` [hydroxyflutamide, reference compound], the HillSlope on androgen receptor [1] was 1.305 and 1.653.

One may read the Ki as a measure of affinity in units of concentration, obtained from inhibition or displacement. Broadly, the IC50 is the concentration at which inhibition is half-maximal. One may read the EC50 as the concentration needed to bring the measured effect to its halfway point. A lower EC50 goes with higher potency in that assay.
